Source: US11414429B2, “Compound or pharmaceutically acceptable salt thereof” (RIKEN, priority 2016, dated 2022)
Where two headings read alike, the source gives them in different places.

What was measured:
tankyrase 1 (TNKS 1) = biological target: T1, tankyrase 1 (TNKS 1) (Homo sapiens, UniProt O95271); assay: Tankyrase inhibitory activity test (ELISA, self-polyADP ribosylation), tankyrase 1; format: biochemical; conditions: self-polyADP ribosylation
T1 construct: 1,024-1,327aa; made in house; host or cells: cell-free protein synthesis system
In short: (§1)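 IC50 was fitted to residual self-polyADP-ribosylation activity, detected by HRP-streptavidin chemiluminescence. Plate-bound Flag fusions (TNKS1 1,024-1,327aa SAM+PARP; TNKS2 613-1,116aa ANK5+SAM+PARP, cell-free synthesized) saw compound for 10 min at room temperature in 50 mM Tris-HCl pH 8.0, 4 mM MgCl2, 0.2 mM DTT. Reaction with 225 μM NAD/25 μM 6-biotin-17-NAD solution ran 45 min at 30 °C.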

tankyrase 2 (TNKS 2) = biological target: T2, tankyrase 2 (TNKS 2) (Homo sapiens, UniProt Q9H2K2); assay: Tankyrase inhibitory activity test (ELISA, self-polyADP ribosylation), tankyrase 2; format: biochemical; conditions: self-polyADP ribosylation
T2 construct: 613-1, 116aa; made in house; host or cells: cell-free protein synthesis system
In short: as §1

[1] = tested on: human colorectal cancer cell line, COLO-320DM; assay: Cell proliferation inhibitory activity test (Celltiter-Glo Luminescent Cell Viability Assay); format: cell-based; conditions: COLO-320DM cells, 96 hours
In short: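 GI50 is taken as the concentration halving cell growth versus 1% DMSO control, measured by ATP luminescence. Compound exposure lasted 96 h at 37° C. under 5% CO2, after overnight seeding in RPMI-1640 with 10% FBS and 2 mM glutamine.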

[2] = ELISA, class symbols, read-out: TNKS1 (inhibitory activity against tankyrase 1, IC50 value)
[3] = ELISA, class symbols, read-out: TNKS2 (inhibitory activity against tankyrase 2, IC50 value)
[4] = class symbols, read-out: COLO-320 DM (cell proliferation inhibitory activity, GI50 value)
[5] = tankyrase 1, ELISA, read-out: TNKS1 inhibitory activity (IC50 class)
[6] = tankyrase 2, ELISA, read-out: TNKS2 inhibitory activity (IC50 class)
[7] = read-out: COLO-320 DM cell proliferation inhibitory activity (GI50 class)

T1 sequence (O95271 1024-1327): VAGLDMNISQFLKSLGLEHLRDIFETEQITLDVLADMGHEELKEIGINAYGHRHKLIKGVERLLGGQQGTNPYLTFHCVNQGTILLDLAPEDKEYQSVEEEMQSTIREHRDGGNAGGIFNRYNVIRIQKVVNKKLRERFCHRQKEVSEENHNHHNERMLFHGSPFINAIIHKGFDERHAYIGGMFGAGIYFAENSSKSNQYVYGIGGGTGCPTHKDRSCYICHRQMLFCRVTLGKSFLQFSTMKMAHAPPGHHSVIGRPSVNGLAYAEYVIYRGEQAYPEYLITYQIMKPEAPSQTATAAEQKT
T2 sequence (Q9H2K2 613-1166): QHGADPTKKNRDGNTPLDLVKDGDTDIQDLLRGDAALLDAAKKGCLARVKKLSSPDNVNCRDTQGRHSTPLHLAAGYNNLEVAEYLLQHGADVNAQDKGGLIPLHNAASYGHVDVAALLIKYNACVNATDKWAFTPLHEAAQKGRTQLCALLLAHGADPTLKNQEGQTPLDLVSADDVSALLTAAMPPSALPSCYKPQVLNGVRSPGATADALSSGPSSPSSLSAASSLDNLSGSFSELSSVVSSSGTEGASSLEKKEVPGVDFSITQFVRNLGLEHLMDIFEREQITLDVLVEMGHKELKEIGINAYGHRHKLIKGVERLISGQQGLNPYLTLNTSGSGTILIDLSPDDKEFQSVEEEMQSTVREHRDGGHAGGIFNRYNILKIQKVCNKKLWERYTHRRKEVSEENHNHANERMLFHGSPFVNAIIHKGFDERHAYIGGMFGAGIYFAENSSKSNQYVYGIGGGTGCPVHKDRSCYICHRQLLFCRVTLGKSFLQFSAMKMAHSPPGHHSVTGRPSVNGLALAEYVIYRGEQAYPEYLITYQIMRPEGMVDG

CN1CCCc2c1nc(N1CCC3(CC1)C(=O)N(CC(F)(F)F)c1cc(OCc4nnn[nH]4)cc(F)c13)[nH]c2=O [Example 419, 6-[(1H-tetrazol-5-yl)methoxy]-4-fluoro-1′-(8-methyl-4-oxo-3,4,5,6,7,8-hexahydro-pyrido[2,3-d]pyrimidin-2-yl)-1-(2,2,2-trifluoro-ethyl)spiro[indoline-3,4′-piperidin]-2(1H)-one] was tested, and the IC50 (tankyrase 1 (TNKS 1); [2]) was less than 20 nM, the IC50 (tankyrase 2 (TNKS 2); [3]) was less than 20 nM and the GI50 [1, 4] was less than 100 nM.
Molecule CN(C)C(=O)COc1cc(F)c2c(c1)C(=O)OC21CCN(c2nc3c(c(=O)[nH]2)CCCN3C)CC1 [Example 55, 2-{[7-fluoro-1′-(8-methyl-4-oxo-3,4,5,6,7,8-hexahydro-pyrido[2,3-d)pyrimidin-2-yl)-3-oxo-3H-spiro[isobenzo-furan-1,4′-piperidin)-5-yl)oxy}-N,N-dimethyl-acetamid] has an IC50 (tankyrase 1 (TNKS 1); [5]) of less than 20 nM, an IC50 (tankyrase 2 (TNKS 2); [6]) of less than 20 nM and a GI50 [1, 7] of 600 to 1000 nM.
In the case of CN1CCCc2c1nc(N1CCC3(CC1)C(=O)N(C)c1c(OCC(=O)O)ccc(F)c13)[nH]c2=O [Example 412, 2-[4-fluoro-1′-(4-hy-droxy-8-methyl-6,7-di-hydro-5H-pyrido[2,3-d]pyrimidin-2-yl)-1-meth-yl-2-oxospiro[indole-3,4′-piperidin]-7-yl] oxyacetic acid], the IC50 (tankyrase 1 (TNKS 1); [2]) is reported as less than 20 nM, the IC50 (tankyrase 2 (TNKS 2); [3]) is reported as less than 20 nM and the GI50 [1, 4] is reported as 600 to 1000 nM.
Molecule CN1CCCc2c1nc(N1CCC3(CC1)C(=O)N(CC(N)=O)c1cc(F)cc(F)c13)[nH]c2=O [Example 424, 2-[4,6-difluoro-1′-(8-methyl-4-oxo-3,4,5,6,7,8-hexahydropyrido [2,3-d]pyrimidin-2-yl)-2-oxospiro[indoline-3,4′-piperidin]-1(2H)-yl]acetamide] has an IC50 (tankyrase 1 (TNKS 1); [2]) of less than 20 nM, an IC50 (tankyrase 2 (TNKS 2); [3]) of less than 20 nM and a GI50 [1, 4] of 100 to 600 nM.
With CN1CCCc2c1nc(N1CCC3(CC1)C(=O)N(C)c1cc(N4CC(C(=O)O)C4)cc(F)c13)[nH]c2=O [Example 423, 1-[4-fluoro-1-methyl-1′-(8-methyl-4-oxo-3,4,5,6,7,8-hexahydro-pyrido[2,3-d]pyrimi-din-2-yl)-2-oxospiro[in-doline-3,4′-piperidin]-6-yl]azetidine-3-carboxylic acid] the IC50 (tankyrase 1 (TNKS 1); [2]) was less than 20 nM, the IC50 (tankyrase 2 (TNKS 2); [3]) was less than 20 nM and the GI50 [1, 4] was less than 100 nM.
O=C1N(Cc2cccnc2)c2cc(F)cc(F)c2C12CCN(c1nc3c(CO)cccc3c(=O)[nH]1)CC2 [Example 273, 4,6-difluoro-1′-[8-(hydroxymethyl)-4-oxo-3,4-dihydro-quinazolin-2-yl]-1-(pyridin-3-ylmethyl)-spiro[indoline-3,4′-piperidin]-2-one] gave an IC50 (tankyrase 1 (TNKS 1); [5]) of less than 20 nM, an IC50 (tankyrase 2 (TNKS 2); [6]) of less than 20 nM and a GI50 [1, 7] of 600 to 1000 nM.
For O=C1N(CC(F)(F)F)c2cccc(F)c2C12CCN(c1nc3c(c(=O)[nH]1)CCCN3)CC2 [Example 451, 4-fluoro-1′-(4-hy-droxy-5,6,7,8-tetra-hydropyrido[2,3-d]pyrimidin-2-yl)-1-(2,2,2-trifluoro-ethyl)spiro[indole-3,4′-piperidine]-2-one], the IC50 (tankyrase 1 (TNKS 1); [2]) was less than 20 nM, the IC50 (tankyrase 2 (TNKS 2); [3]) was less than 20 nM and the GI50 [1, 4] was 100 to 600 nM.
Work on CN1CCCc2c1nc(N1CCC3(CC1)C(=O)N(C)c1cc(N4CCC(C(=O)O)CC4)cc(F)c13)[nH]c2=O [Example 422, 1-[4-fluoro-1-methyl-1′-(8-methyl-4-oxo-3,4,5,6,7,8-hexahydro-pyrido[2,3-d]pyrimi-din-2-yl)-2-oxospiro [indoline-3,4′-piperidin]-6-yl]piperidine-4-carboxylic acid] yielded an IC50 (tankyrase 1 (TNKS 1); [2]) of less than 20 nM, an IC50 (tankyrase 2 (TNKS 2); [3]) of less than 20 nM and a GI50 [1, 4] of less than 100 nM.
Work on CN1CCCc2c1nc(N1CCC3(CC1)OC(=O)c1cc(-c4cnn(C)c4)cc(F)c13)[nH]c2=O [Example 450, 4-fluoro-1′-(4-hy-droxy-8-methyl-6,7-dihydro-5H-py-rido[2,3-d]pyrimidin-2-yl)-6-(1-meth-ylpyrazol-4-yl)spiro [2-benzofuran-3,4′-piperidine]-1-one] yielded an IC50 (tankyrase 1 (TNKS 1); [2]) of less than 20 nM, an IC50 (tankyrase 2 (TNKS 2); [3]) of less than 20 nM and a GI50 [1, 4] of less than 100 nM.
In the case of CN1CCCc2c1nc(N1CCC3(CC1)OC(=O)c1cc(N4CCN(C(C)(C)C)CC4)cc(F)c13)[nH]c2=O [Example 434, 6-(4-tert-butylpipera-zin-1-yl)-4-fluoro-1′-(4-hydroxy-8-methyl-6,7-dihydro-5H-pyrido [2,3-d]pyrimidin-2-yl) spiro[2,3-benzofuran-3,4′-piperidine]-1-one], the IC50 (tankyrase 1 (TNKS 1); [2]) is reported as less than 20 nM, the IC50 (tankyrase 2 (TNKS 2); [3]) is reported as less than 20 nM and the GI50 [1, 4] is reported as 600 to 1000 nM.
Molecule CN1CCCc2c1nc(N1CCC3(CC1)C(=O)N(C)c1cc(N4CCN(S(=O)(=O)N(C)C)CC4)cc(F)c13)[nH]c2=O [Example 458, 4-[4-fluoro-1-meth-yl-1′-(8-methyl-4-oxo-3,4,5,6,7,8-hexahydropyrido [2,3-d]pyrimidin-2-yl)-2-oxospiro [indole-3,4′-piperi-dine]-6-yl]-N,N-di-methylpiperazine-1-sulfonamide] has an IC50 (tankyrase 1 (TNKS 1); [2]) of 20 to 200 nM, an IC50 (tankyrase 2 (TNKS 2); [3]) of less than 20 nM and a GI50 [1, 4] of 100 to 600 nM.
COC1CCN(c2cc(F)c3c(c2)N(C)C(=O)C32CCN(c3nc4c(c(=O)[nH]3)CCCN4C)CC2)CC1 [Example 465, 4-fluoro-6-(4-methoxypiperidin-1-yl)-1-methyl-1′-(8-methyl-4-oxo-3,4,5,6,7,8-hexahydropyrido[2,3-d]pyrimidin-2-yl)spiro[indole-3,4′-piperidine]-2(1H)-one] gave an IC50 (tankyrase 1 (TNKS 1); [2]) of 20 to 200 nM, an IC50 (tankyrase 2 (TNKS 2); [3]) of less than 20 nM and a GI50 [1, 4] of less than 100 nM.
Molecule CN1CCCc2c1nc(N1CCC3(CC1)C(=O)N(C)c1cc(-c4nc(CN5CCCC5)co4)cc(Cl)c13)[nH]c2=O [Example 329, 4-chloro-1-methyl-1′-(8-methyl-4-oxo-3,4,5,6,7,8-hexahydro-pyrido[2,3-d]-pyrimidin-2-yl)-6-[4-(pyrroidin-1yl-methyl)oxazol-2-yl]-spiro-[indoline-3,4′-piperidin]-2-one] has an IC50 (tankyrase 1 (TNKS 1); [5]) of 20 to 200 nM, an IC50 (tankyrase 2 (TNKS 2); [6]) of 20 to 200 nM and a GI50 [1, 7] of 600 to 1000 nM.
Molecule CN1CCC(COc2ccc(F)c3c2N(C)C(=O)C32CCN(c3nc4c(c(=O)[nH]3)CCCN4C)CC2)CC1 [Example 413] has an IC50 (tankyrase 1 (TNKS 1); [2]) of 20 to 200 nM, an IC50 (tankyrase 2 (TNKS 2); [3]) of less than 20 nM and a GI50 [1, 4] of 600 to 1000 nM.
CN1CCCc2c1nc(N1CCC3(CC1)C(=O)N(C)c1ccccc13)[nH]c2=O [Example 292, 1-methyl-1′-(8-methyl-4-oxo-3,4,5,6,7,8-hexa-hydropyrido-[2,3-d]-pyrimidin-2-yl)-spiro[indoline-3,4′-piperidine]-2-one] gave an IC50 (tankyrase 1 (TNKS 1); [5]) of less than 20 nM, an IC50 (tankyrase 2 (TNKS 2); [6]) of less than 20 nM and a GI50 [1, 7] of 100 to 600 nM.
CN1CCCc2c1nc(N1CCC3(CC1)C(=O)N(C)c1cc(-c4nc(C(=O)N5CCOCC5)co4)cc(Cl)c13)[nH]c2=O [Example 326, 4-chloro-6-[4-(morpholine-4-carbonyl)-oxazol-2-yl]-1-methyl-1′-(8-methyl-4-oxo-3,4,5,6,7,8-hexahydro-pyrido[2,3-d]-pyrimidin-2-yl)spino-[indoline-3,4′-piperidin]-2-one] showed an IC50 (tankyrase 1 (TNKS 1); [5]) of 20 to 200 nM, an IC50 (tankyrase 2 (TNKS 2); [6]) of 20 to 200 nM and a GI50 [1, 7] of 600 to 1000 nM.
With CN1CCCc2c1nc(N1CCC3(CC1)C(=O)N(CC(=N)N)c1cc(F)cc(F)c13)[nH]c2=O [Example 430, [4,6-difluoro-1′-(8-methyl-4-oxo-3,4,5,6,7,8-hexahydropyrido[2,3-d]pyrimidin-2-yl)-2-oxospiro[indoline-3,4′-piperidine]-1(2H)-yl]ethanimidamide] the IC50 (tankyrase 1 (TNKS 1); [2]) was less than 20 nM, the IC50 (tankyrase 2 (TNKS 2); [3]) was less than 20 nM and the GI50 [1, 4] was 600 to 1000 nM.
